According to patent US9278982B2, “Targeting human thymidylate kinase induces DNA repair toxicity in malignant tumor cells” (NATIONAL YANG-MING UNIVERSITY, priority 2010, dated 2016):

Key:
MDA-MB231 cells [1] = assay: Repair of doxorubicin-induced DNA lesions (γH2AX, Rad51, XRCC1 foci staining); type: cell-based, human
Method: FIG. 14. Effect of YMU1 on genomic toxicity and DNA repair. […] After overnight, cells were exposed to doxorubicin and recovered. […]
For γH2AX, Rad51 and XRCC1 staining, cells were fixed with 4% paraformaldehyde for 30 min at room temperature and were incubated with TBS (50 mM Tris-HCl, pH 7.4, 150 mM NaCl) plus 0.3% Triton X-100 for 5 min. The coverslips were blocked with MAXblock™ (Active Motif) for 1 h at 37° C., followed by staining with primary antibodies: anti-γH2AX monoclonal antibody (1:1000), anti-Rad51 polyclonal antibody (1:500) or anti-XRCC1 monoclonal antibody (1:500) overnight at 4° C. After extensive washing, cells were stained with secondary antibodies and Hoechst 33342 for 1 h at room temperature. After mounting, cells were analyzed and photographed with a Carl Zeiss fluorescence microscope equipped with AxioCam digital camera and Axio Vision Rel. 4.8 imaging software.

MDA-MB231 cells [2] = assay: Comet assay of DNA repair efficiency after doxorubicin; type: cell-based, human; details: YMU1 treatment, after removal of doxorubicin (0.1 μM)
Method: FIG. 15. […] DNA repair efficiency was measured by comet assay at indicated time after removal of doxorubicin (0.1 μM) in MDA-MB231 cells. Image of DNA comet was acquired and quantified by using scion image software for tail moment determination. Data were expressed as mean±s.d. by counting at least 70 comets per sample in 3 independent experiments. **, P<0.01 based on a two-tailed Student's t-test.
Alkaline comet assays were performed using a Trevigen's Comet Assay kit (4250-050-k) according to the manufacturer's instruction. DNA was stained with SYBR Green, and slides were photographed digitally (Olympus BX51 microscope and Olympus camera). Tail moments were analyzed using Scoin Image software.

panel of cell lines = assay: Doxorubicin sensitization, MTS viability assay, summary over the panel of cell lines; type: cell-based, human
Method: (§1) FIG. 16. In vitro and in vivo effect of YMU1 on doxorubicin sensitization. (A) A panel of cell lines were pre-treated with vehicle, YMU1 (compound 21), D6 (ethyl 4-(2-chloroacetyl)piperazine-1-carboxylate) or D7 (compound 28) for 3 days and were exposed to different concentration of doxorubicin for 4 h. […] The enhancement (fold) of doxorubicin sensitivity in each cell line was calculated. Data represent mean±s.d., n=3; each experiment was quadruplex. Inset indicates the IC50 value of doxorubicin in various cell lines. […] Following overnight culture, cells were refreshed with growth medium. After 14 days of culture, colonies were fixed, stained by crystal violet and counted. (C) HCT-116 p53^−/− cells were subcutaneously implanted in the right flank of Balb/c nude mice (each experimental group n=8). Arrow indicated the time of stopping drug treatment. The tumor volume was estimated as described in Methods of the Invention section. (D) After 2 weeks recovered from treatment, mice were sacrificed for tumor weight measurement. Data represent mean±s.e.m; **, P<0.01 by a two-tailed Student's t-test. (E) Ki 67 proliferation marker staining of tumor shown in left panel. Scale bar, 50 μm. (F) Model of doxorubicin sensitization by YMU1 in malignant cancer cells. Both R2/R1 and TMPK are recruited to the site of doxorubicin-induced double-strand breaks, where dATP, dGTP, dCTP, dTTP and dUTP are site-specific synthesized. Inhibition of TMPK decreases dTTP formation at DNA damage sites, causing futile DNA repair due to dUTP incorporation.
Next, various human cancer cell lines were treated with YMU1, D6 or D7 for 72 h to test the potential of TMPK inhibitor in doxorubicin sensitization. After exposure to different concentration of doxorubicin for 4 h, cells were refreshed for viability analysis after 2 days and the IC50 value for doxorubicin in each of the cell lines was determined (FIG. 16A and Table 2).
The ability of YMU1 to sensitize non-tumorigenic mammary cycling H184B5F5/M10, MCF10A, primary human mammary epithelial (HMEC) and primary renal epithelial (HREC) cells and IMR-90 embryonic lung fibroblasts to doxorubicin was much weaker.
Cells plated into a 96-well plate (10^3 cells/well) were treated and cell viability was measured by MTS assay (Promega) (Cory et al., 1991). An annexin V-fluorescein isothiocyanate (FITC) apoptosis kit (Calbiochem) was used to detect apoptosis. The cell cycle analysis was performed by staining cells with propidium iodide (PI) for fluorescence-activated cell sorter (FACS) analysis with CellQuest software.

[3] = test system: various cancer cell lines; assay: Colony formation assay after YMU1 and doxorubicin; type: cell-based, human; details: YMU1 72 h, doxorubicin 0.1 μM 4 h, 14 days of culture
Method: as §1, with “Both R2/R1 and TMPK are recruited to the site of doxorubicin-induced double-strand breaks, where dATP, dGTP, dCTP, dTTP and dUTP are site-specific synthesized. Inhibition of TMPK decreases dTTP formation at DNA damage sites, causing futile DNA repair due to dUTP incorporation.” left out

In vivo toxicity of YMU1 = assay: In vivo toxicity of YMU1; set-up: species or system Balb/c mice
TMPK = target: T1, TMPK (Homo sapiens, UniProt P23919); assay: In vitro TMPK inhibitory activity of TMPK inhibitor derivatives (inhibition yield); type: biochemical; set-up: GST (N, cleaved yes); made in house; host or cells: E. coli JM109 (pGEX-2T-hTMPK), inferred; details: 2 μM; n=3 or 6; read-out: inhibition yield, normalized to compound 21 (YMU1) = 100%
T1 sequence (P23919 1-212): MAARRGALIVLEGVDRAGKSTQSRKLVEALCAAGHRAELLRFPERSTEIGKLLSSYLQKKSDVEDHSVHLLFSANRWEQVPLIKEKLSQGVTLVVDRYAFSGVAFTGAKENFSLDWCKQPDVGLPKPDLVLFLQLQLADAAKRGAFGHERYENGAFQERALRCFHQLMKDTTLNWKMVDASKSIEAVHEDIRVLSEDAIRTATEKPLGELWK
Source text: Chemical structures of the different TMPK inhibitor derivatives tested for in vitro TMPK inhibitory activity and in vivo doxorubicin sensitization activity (in MDA-MB231 cells) are depicted below.

[4] = YMU1 2 μM 72 h, doxorubicin exposure and recovery

CCOC(=O)N1CCN(C(=O)Cn2sc3nc(C)cc(C)c3c2=O)CC1 [compound 21, Ethyl 4-(2-(4,6-dimethyl-3-oxoisothiazolo[5,4-b]pyridin-2(3H)-yl)acetyl) piperazine-1-carboxylate]
Rad51 foci (MDA-MB231 cells [1]; [4]): persistent Rad51 foci
XRCC1 foci formation (MDA-MB231 cells [1]; [4]): increase in XRCC1 foci formation
numbers of DNA lesions formation (γH2AX focus staining) (MDA-MB231 cells [1]; YMU1 2 μM 72 h pre-treatment, doxorubicin 0.1 μM): did not affect numbers of DNA lesions formation
cells still γH2AX-positive (MDA-MB231 cells [1]; YMU1 2 μM 72 h pretreatment, recovery 48 h post-doxorubicin (0.1 μM) exposure): over 70%
DNA repair (comet assay, tail moment) (MDA-MB231 cells [2]): impairment of DNA repair
ability to sensitize to doxorubicin (panel of cell lines; non-tumorigenic H184B5F5/M10, MCF10A, HMEC, HREC cells and IMR-90 fibroblasts): much weaker
doxorubicin sensitization (panel of cell lines; two BRCA 1/2 deficient tumor cells defective in homologous recombination repair): not responsive
lethal effects of doxorubicin (colony assay) [3]: markedly enhanced the lethal effects of doxorubicin
Body weight (In vivo toxicity of YMU1; Pre-treat, n = 4, Mean ± SEM): 19.93 ± 1.63 g
Clinical observations (In vivo toxicity of YMU1; Treatment group n = 4, YMU1 4 weeks): Nil
Body weight (In vivo toxicity of YMU1; Week -2, n = 4, Mean ± SEM): 20.88 ± 1.07 g
Body weight (In vivo toxicity of YMU1; Week-1, n = 4, Mean ± SEM): 20.48 ± 1.43 g
Body weight (In vivo toxicity of YMU1; Week-3, n = 4, Mean ± SEM): 21.25 ± 1.13 g
Body weight (In vivo toxicity of YMU1; Week-4, n = 4, Mean ± SEM): 21.30 ± 0.96 g
mouse body weight (In vivo toxicity of YMU1; YMU1 4 weeks, 2-fold higher dose regimen than in the tumor xenograft study): did not alter mouse body weight
toxic effect in normal mice (In vivo toxicity of YMU1; YMU1 on its own, 4 weeks): produces no toxic effect
Blood Chemistry, Alanine Aminotransferase (In vivo toxicity of YMU1; n = 4, Mean ± SEM): 32.00 ± 2.45 U/L
Blood Chemistry, Alkaline Phosphatase (In vivo toxicity of YMU1; n = 4, Mean ± SEM): 389.25 ± 20.79 U/L
Blood Chemistry, Aspartate Aminotransferase (In vivo toxicity of YMU1; n = 4, Mean ± SEM): 62.50 ± 5.26 U/L
Blood Chemistry, Blood Urea Nitrogen (In vivo toxicity of YMU1; n = 4, Mean ± SEM): 19.08 ± 3.25 mg/dL
Blood Chemistry, Creatinine (In vivo toxicity of YMU1; n = 4, Mean ± SEM): 0.10 ± 0.00 mg/dL
Blood Chemistry, Total protein (In vivo toxicity of YMU1; n = 4, Mean ± SEM): 5.48 ± 0.25 g/dL
Hematology, Hb (In vivo toxicity of YMU1; n = 4, Mean ± SEM): 16.25 ± 0.41 g/dl
Hematology, PCV (In vivo toxicity of YMU1; n = 4, Mean ± SEM): 53.48 ± 2.50%
Blood Chemistry, Glucose (In vivo toxicity of YMU1; n = 4, Mean ± SEM, *P < 0.05): 136.25 ± 14.31* mg/dl
inhibition at 2 µM (TMPK): 100%
